Earlier results as cited in patent US20080286341A1, “Buffered coated nicotine containing products” (priority 2007, published 2008).

How the values were obtained:
[1] = from Handbook of Chemistry and Physics, 85th edition
[2] = smoking a cigarette

## NC(=O)C[C@H](N)C(=O)O [Aspargine]
[1]
  pKa value (in interval 8.0-9.6): 8.73

## CN1CCCC1c1cccnc1 (centres unmarked) [nicotine, 3-(1-methyl-2-pyrrolidinyl)-pyridine]
[2]
  time to reach the brain after inhalation: ten
